Read-outs that look alike come from different tables or passages of the source.
Molecular target: T1, NL20 human bronchial epithelial cells expressing human Z-AAT (Homo sapiens, UniProt P01009, E366K)
T1 construct: expressed in transfected cells; host or cells: NL20 human bronchial epithelial cells (NL20-SI line, doxycycline added)
Assay: AAT Function Assay (MSD Assay NL20-SI Cell Line)
Type: cell-based
Details: functionally active AAT (AAT-hNE complex) in supernatant of NL20 cells expressing human Z-AAT
Procedure, shortened: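 NL20 cells expressing Z-AAT, seeded 16,000 cells/well, received compound with doxycycline (0.1 μM final) and were incubated overnight at 37° C. Supernatants, diluted 45-fold in total, reacted with excess human neutrophil elastase; AAT-elastase complex captured on anti-AAT plates, detected with Sulfo-tagged anti-elastase by MSD electrochemiluminescence, and quantified against M-AAT standards (0.156-320 ng/mL).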

T1 sequence (P01009 25-418 E366K): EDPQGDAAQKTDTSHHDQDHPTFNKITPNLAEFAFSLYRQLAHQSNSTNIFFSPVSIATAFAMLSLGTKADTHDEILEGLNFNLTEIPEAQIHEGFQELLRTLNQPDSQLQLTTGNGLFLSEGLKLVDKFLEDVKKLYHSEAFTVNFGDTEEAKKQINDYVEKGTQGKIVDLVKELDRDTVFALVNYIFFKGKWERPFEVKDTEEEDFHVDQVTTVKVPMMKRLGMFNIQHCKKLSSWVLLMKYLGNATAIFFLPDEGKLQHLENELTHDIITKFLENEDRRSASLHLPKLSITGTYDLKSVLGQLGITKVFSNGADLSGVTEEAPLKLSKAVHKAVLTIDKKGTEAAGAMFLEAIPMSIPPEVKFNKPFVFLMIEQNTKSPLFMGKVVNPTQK

| SMILES | EC50 (read-out: NL20 Func. (EC50)) [µM] | EC50 (NL20 Func. (EC50)) [µM] |
| --- | --- | --- |
| COC(=O)C1CC2(C1)CC(c1c(C3CCOCC3)n(-c3ccc(F)c(C)c3)c3cc4cn[nH]c4cc13)C2 (racemic) [Compound 89] | > 3 | – |
| Cc1cc(-n2c(C(C)C)c(I)c3cc4[nH]nc(F)c4cc32)ccc1F [Compound 46, 3-fluoro-5-(4-fluoro-3-methyl-phenyl)-7-iodo-6-isopropyl-1H-pyrrolo[2,3-f]indazole] | > 3 | – |
| CC(C)c1c(C#N)c2cc3[nH]ncc3cc2n1-c1cccc(Cl)c1 [Compound 45, 5-(3-chlorophenyl)-6-isopropyl-1H-pyrrolo[2,3-f]indazole-7-carbonitrile] | > 3 | – |
| Cc1cc(-n2c(C(C)C)c(C#N)c3cc4[nH]ncc4cc32)ccc1F [Compound 10, 5-(4-fluoro-3-methyl-phenyl)-6-isopropyl-1H-pyrrolo[2,3-f]indazole-7-carbonitrile] | > 3 | – |
| Cc1cc(-n2c(C(C)C)c(N3CCCC3=O)c3cc4[nH]ncc4cc32)ccc1F [Compound 8, 1-[5-(4-fluoro-3-methyl-phenyl)-6-isopropyl-1H-pyrrolo[2,3-f]indazol-7-yl]pyrrolidin-2-one] | > 3 | – |
| Cc1cc(-n2c(C3CCOCC3)c(CCC(=O)O)c3cc4[nH]nc(C)c4cc32)ccc1F [Compound 125, 3-[5-(4-fluoro-3-methyl-phenyl)-3-methyl-6-tetrahydropyran-4-yl-1H-pyrrolo[2,3-f]indazol-7-yl]propanoic Acid] | > 3 | – |
| Cc1cc(-n2c(C3CCOCC3)c(CC3CC3C(=O)O)c3cc4[nH]ncc4cc32)ccc1F (single isomer, unassigned) [Compound 102] | > 3 | – |
| CC(C)c1c(CCC(=O)O)c2nc3[nH]ncc3nc2n1-c1ccc(F)cc1 [Compound 204, 3-[10-(4-fluorophenyl)-11-isopropyl-2,4,5,8,10-pentazatricyclo[7.3.0.03,7]dodeca-1,3(7),5,8,11-pentaen-12-yl]propanoic Acid] | – | > 3 |
| Cc1cc(-n2c(C(C)C)c(CCC(=O)O)c3cc4c(cnn4C)cc32)ccc1F [Compound 195, 3-[5-(4-fluoro-3-methyl-phenyl)-6-isopropyl-1-methyl-pyrrolo[2,3-f]indazol-7-yl]propanoic Acid] | > 3 | – |
| C[C@H](O)C(=O)N1CC2(CC(c3c(C4CCOCC4)n(-c4ccc(F)c(F)c4)c4cc5cn[nH]c5cc34)C2)C1 [Compound 184, (2S)-1-[6-[5-(3,4-difluorophenyl)-6-tetrahydropyran-4-yl-1H-pyrrolo[2,3-f]indazol-7-yl]-2-azaspiro[3.3]heptan-2-yl]-2-hydroxy-propan-1-one] | > 3 | – |
| CC(C)c1c(CCC(=O)O)c2cc3[nH]ncc3nc2n1-c1ccc(F)cc1 [Compound 202, 3-[4-(4-fluorophenyl)-5-isopropyl-2,4,10,11-tetrazatricyclo[7.3.0.03,7]dodeca-1,3(7),5,8,11-pentaen-6-yl]propanoic Acid] | – | > 3 |
| CC(C)c1c(C#N)c2cc3[nH]ncc3cc2n1-c1ccccc1 [Compound 42, 6-isopropyl-5-phenyl-1H-pyrrolo[2,3-f]indazole-7-carbonitrile] | – | 1.16 to 3 |
| C=C(C)c1c(C23CC(C(=O)OC)(C2)C3)c2cc3[nH]ncc3cc2n1-c1ccc(F)cc1 [Compound 207, methyl 3-[5-(4-fluorophenyl)-6-isopropenyl-1H-pyrrolo[2,3-f]indazol-7-yl]bicyclo[1.1.1]pentane-1-carboxylate] | > 3 | – |
| O=C(O)CCc1c(C2CNC2)n(-c2ccc(F)cc2)c2cc3cn[nH]c3cc12 [Compound 198, 3-[6-(azetidin-3-yl)-5-(4-fluorophenyl)-1H-pyrrolo[2,3-f]indazol-7-yl]propanoic Acid] | > 3 | – |
| COCC(C)(C)c1c(CCC(N)=O)c2cc3[nH]ncc3cc2n1-c1ccc(F)cc1 [Compound 183] | > 3 | – |

The next lines start with results.

| EC50 (read-out: NL20 Func. (EC50)) [µM] | SMILES | EC50 (NL20 Func. (EC50)) [µM] |
| --- | --- | --- |
| < 1.16 | O=C(O)C1CC2(C1)CC(c1c(C3CCOCC3)n(-c3ccc(F)cc3)c3cc4cn[nH]c4c(F)c13)C2 (single isomer, unassigned) [Compound 137, 6-[8-fluoro-5-(4-fluorophenyl)-6-tetrahydropyran-4-yl-1H-pyrrolo[2,3-f]indazol-7-yl]spiro[3.3]heptane-2-carboxylic acid] | – |
| 1.16 to 3 | CC(C)c1c(CCC(=O)O)c2cc3[nH]ncc3cc2n1-c1ccc(F)cc1 [Compound 32, 3-[5-(4-fluorophenyl)-6-isopropyl-1H-pyrrolo[2,3-f]indazol-7-yl]propanoic Acid] | – |
| > 3 | CC(C)c1c(CCC(=O)O)c2cc3nn[nH]c3cc2n1-c1ccc(F)cc1 [Compound 214, 3-(5-(4-fluorophenyl)-6-isopropyl-3,5-dihydro-[1,2,3]triazolo[4,5-f]indol-7-yl)propanoic Acid] | – |
| 1.16 to 3 | O=C(O)C1CC(Cc2c(C3CCOCC3)n(-c3ccc(F)c(Cl)c3)c3cc4cn[nH]c4cc23)C1 (mixture of isomers) [Compound 79] | – |
| 1.16 to 3 | [2H]C([2H])(CC(=O)O)c1c(C(C)C)n(-c2ccc(F)cc2)c2cc3cn[nH]c3cc12 [Compound 169, 3,3-dideuterio-3-[5-(4-fluorophenyl)-6-isopropyl-1H-pyrrolo[2,3-f]indazol-7-yl]propanoic Acid] | – |
| 1.16 to 3 | CS(=O)(=O)CCc1c(C2CCOCC2)n(-c2ccc(F)cc2)c2cc3cn[nH]c3cc12 [Compound 151] | – |
| 1.16 to 3 | Cc1cc(-n2c(C(C)C)c(CCC(=O)O)c3cc4[nH]ncc4cc32)ccc1F [Compound 16, 3-[5-(4-fluoro-3-methyl-phenyl)-6-isopropyl-1H-pyrrolo[2,3-f]indazol-7-yl]propanoic acid] | – |
| 1.16 to 3 | O=C(O)C1CC2(C1)CC(c1c(C3CCOCC3)n(-c3ccc(F)cc3)c3cc4cn[nH]c4cc13)C2 (racemic) [Compound 108, 6-(5-(4-fluorophenyl)-6-(tetrahydro-2H-pyran-4-yl)-1,5-dihydropyrrolo[2,3-f]indazol-7-yl)spiro[3.3]heptane-2-carboxylic Acid] | – |
| 1.16 to 3 | Cc1cc(-n2c(C3CCOCC3)c([C@H]3C[C@H](CC(=O)O)C3)c3cc4[nH]ncc4cc32)ccc1F (single isomer, unassigned) [Compound 94] | – |
| < 1.16 | O=C(O)C1CC2(C1)CC(c1c(C3CCOCC3)n(-c3ccc(F)c(F)c3)c3cc4cn[nH]c4c(Br)c13)C2 (stereo not shown) [Compound 134, 6-[8-bromo-5-(3,4-difluorophenyl)-6-tetrahydropyran-4-yl-1H-pyrrolo[2,3-f]indazol-7-yl]spiro[3.3]heptane-2-carboxylic Acid] | – |
| 1.16 to 3 | O=C(O)C1(Cc2c(C3CCOCC3)n(-c3ccc(F)cc3)c3cc4cn[nH]c4cc23)CC1 [Compound 111] | – |
| 1.16 to 3 | [2H]C([2H])(Cc1c(C(C)C)n(-c2ccc(F)cc2)c2cc3cn[nH]c3cc12)C(=O)O [Compound 170, 2,2-dideuterio-3-[5-(4-fluorophenyl)-6-isopropyl-1H-pyrrolo[2,3-f]indazol-7-yl]propanoic Acid] | – |
| 1.16 to 3 | CC(=O)N1CCC(Cc2c(C3CCOCC3)n(-c3ccc(F)cc3)c3cc4cn[nH]c4cc23)CC1 [Compound 153, 1-[4-[[5-(4-fluorophenyl)-6-tetrahydropyran-4-yl-1H-pyrrolo[2,3-f]indazol-7-yl]methyl]-1-piperidyl]ethanone] | – |
| 1.16 to 3 | COCC(C)(C)c1c(CCC(=O)O)c2cc3[nH]ncc3cc2n1-c1ccc(F)cc1 [Compound 177] | – |
| < 1.16 | CC(C)c1c(C2CC3(CC(C(=O)O)C3)C2)c2cc3[nH]ncc3cc2n1-c1ccc(F)cc1 (racemic) [Compound 34, 6-[5-(4-fluorophenyl)-6-isopropyl-1H-pyrrolo[2,3-f]indazol-7-yl]spiro[3.3]heptane-2-carboxylic acid] | – |
| 1.16 to 3 | COCCc1c(C(C)(C)COC)n(-c2ccc(F)cc2)c2cc3cn[nH]c3cc12 [Compound 178] | – |
| < 1.16 | Cc1cc(-n2c(C3CCOCC3)c(C[C@H]3C[C@@H](C(=O)O)C3)c3cc4[nH]ncc4cc32)ccc1F (single isomer, unassigned) [Compound 97] | – |
| < 1.16 | Cc1cc(-n2c(C(C)C)c(CC(C)C(=O)O)c3cc4[nH]ncc4cc32)ccc1F (single isomer, unassigned) [Compound 21] | – |
| < 1.16 | O=C(O)C1CC2(C1)CC(c1c(C3CCOCC3)n(-c3ccc(F)c(F)c3)c3cc4cn[nH]c4cc13)C2 (single isomer, unassigned) [Compound 68] | – |
| < 1.16 | Cc1c2[nH]ncc2cc2c1c(C1CC3(CC(C(=O)O)C3)C1)c(C1CCOCC1)n2-c1ccc(F)c(F)c1 (stereo not shown) [Compound 131, 6-[5-(3,4-difluorophenyl)-8-methyl-6-tetrahydropyran-4-yl-1H-pyrrolo[2,3-f]indazol-7-yl]spiro[3.3]heptane-2-carboxylic acid] | – |
| 1.16 to 3 | Cc1cc(-n2c(C3CCOCC3)c(C3CC4(CC(C(=O)O)C4)C3)c3cc4[nH]nc(C)c4cc32)ccc1F (single isomer, unassigned) [Compound 128, 6-[5-(4-fluoro-3-methyl-phenyl)-3-methyl-6-tetrahydropyran-4-yl-1H-pyrrolo[2,3-f]indazol-7-yl]spiro[3.3]heptane-2-carboxylic acid] | – |
| < 1.16 | O=C(O)[C@H]1CC[C@@H](Cc2c(C3CCOCC3)n(-c3ccc(F)c(F)c3)c3cc4cn[nH]c4cc23)CC1 (single isomer, unassigned) [Compound 73] | – |
